In PubChem BioAssay AID296 (DTP/NCI, 2004):
Where “and” joins values, the source holds several entries; their conditions need not be identical. Equal values may be shown once. Inconclusive results are not listed.

System: MX-1 breast xenograft, nude mice, tumor weight T/C
Assay: NCI In Vivo Anticancer Drug Screen. Data for tumor model Human Mammary Carcinoma MX-1 Xenograft (intrarenal inoculation) in NU/NU Swiss (nude) mice
Conditions: endpoint: mean tumor weight change, higher = larger tumour
Method in brief: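 Tumor-bearing mice were treated with test compound alongside a vehicle-treated control group. Survival or tumor size was measured, and activity is expressed as the treated-group value divided by the control-group value.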

## CCOC(=O)c1[nH]c2cccc3c2c1CC(Br)C3=O (stereo not drawn)
dose: 300.0 mg/kg/injection, schedule: Q04DX003 (sc), vehicle: saline with Tween-80
  T/C: 86 % of control
dose: 600.0 mg/kg/injection, schedule: Q04DX003 (sc), vehicle: saline with Tween-80
  T/C: 100 % of control
dose: 1200.0 mg/kg/injection, schedule: Q04DX003 (sc), vehicle: saline with Tween-80
  T/C: 73 % of control
dose: 2400.0 mg/kg/injection, schedule: Q04DX003 (sc), vehicle: saline with Tween-80
  T/C: 94 % of control

## CCCCC(=O)OCC(=O)[C@]1(O)Cc2c(O)c3c(c(O)c2[C@@H](OC2CC(NC(=O)C(F)(F)F)C(O)C(C)O2)C1)C(=O)c1c(OC)cccc1C3=O (stereo partly drawn)
dose: 64.0 mg/kg/injection, schedule: Q01DX010 (sc), vehicle: distilled water + Tween-80
  T/C: 91 % of control
dose: 128.0 mg/kg/injection, schedule: Q01DX010 (sc), vehicle: distilled water + Tween-80
  T/C: 56 % of control
dose: 256.0 mg/kg/injection, schedule: Q01DX010 (sc), vehicle: distilled water + Tween-80
  T/C: 34 % of control

## N[C@@H](Cc1ccc(N(CCCl)CCCl)cc1)C(=O)O
dose: 1.5 mg/kg/injection, schedule: Q04DX003 (sc), vehicle: suspension in saline
  T/C: 23 % of control and 34 % of control
dose: 2.0 mg/kg/injection, schedule: Q01DX010 (ip), vehicle: saline
  T/C: -42 % of control and -36 % of control
dose: 3.0 mg/kg/injection, schedule: Q04DX003 (sc), vehicle: suspension in saline
  T/C: 4 % of control and 8 % of control
dose: 3.33 mg/kg/injection, schedule: Q04DX003 (ip), vehicle: saline
  T/C: -15 % of control
dose: 3.33 mg/kg/injection, schedule: Q04DX003 (sc), vehicle: saline
  T/C: 7 % of control
dose: 4.0 mg/kg/injection, schedule: Q01DX010 (ip), vehicle: saline
  T/C: -91 % of control
dose: 4.0 mg/kg/injection, schedule: Q01DX010 (sc), vehicle: suspension in saline
  T/C: -100 % of control
dose: 6.0 mg/kg/injection, schedule: Q04DX003 (sc), vehicle: suspension in saline
  T/C: -72 % of control and -58 % of control
dose: 6.65 mg/kg/injection, schedule: Q04DX003 (ip), vehicle: saline
  T/C: -87 % of control
dose: 6.65 mg/kg/injection, schedule: Q04DX003 (sc), vehicle: saline
  T/C: -51 % of control
dose: 12.0 mg/kg/injection, schedule: Q04DX003 (sc), vehicle: saline
  T/C: -100 % of control
dose: 12.0 mg/kg/injection, schedule: Q04DX003 (sc), vehicle: suspension in saline
  T/C: -100 % of control

## COc1cc([C@@H]2c3cc4c(cc3[C@@H](OC3OC5CO[C@@H](c6cccs6)OC5C(O)C3O)[C@H]3COC(=O)[C@H]23)OCO4)cc(OC)c1O (stereo partly drawn)
dose: 8.0 mg/kg/injection, schedule: Q01DX010 (sc), vehicle: saline
  T/C: 67 % of control
dose: 16.0 mg/kg/injection, schedule: Q01DX010 (sc), vehicle: saline
  T/C: 60 % of control
dose: 32.0 mg/kg/injection, schedule: Q01DX010 (sc), vehicle: saline
  T/C: 96 % of control
dose: 64.0 mg/kg/injection, schedule: Q01DX010 (sc), vehicle: saline
  T/C: 44 % of control
dose: 66.0 mg/kg/injection, schedule: Q01DX010 (sc), vehicle: saline
  T/C: 55 % of control
dose: 132.0 mg/kg/injection, schedule: Q01DX010 (sc), vehicle: saline
  T/C: 34 % of control
dose: 264.0 mg/kg/injection, schedule: Q01DX010 (sc), vehicle: saline
  T/C: 40 % of control
dose: 528.0 mg/kg/injection, schedule: Q01DX010 (sc), vehicle: saline
  T/C: 79 % of control

## COc1cc([C@@H]2c3cc4c(c(O)c3C[C@H]3COC(=O)[C@@H]32)OCO4)cc(OC)c1O
dose: 0.5 mg/kg/injection, schedule: Q01DX010 (sc), vehicle: saline
  T/C: 121 % of control
dose: 1.0 mg/kg/injection, schedule: Q01DX010 (sc), vehicle: saline
  T/C: 114 % of control
dose: 2.0 mg/kg/injection, schedule: Q01DX010 (sc), vehicle: saline
  T/C: 87 % of control
dose: 3.13 mg/kg/injection, schedule: Q01DX010 (sc), vehicle: saline
  T/C: 104 % of control
dose: 4.0 mg/kg/injection, schedule: Q01DX010 (sc), vehicle: saline
  T/C: 98 % of control
dose: 6.25 mg/kg/injection, schedule: Q01DX010 (sc), vehicle: saline
  T/C: 34 % of control
